ChEMBL document CHEMBL1201862, “PubChem BioAssay data set” (2004)
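Where inhibition never reached the appropriate level, the endpoint shown equals the highest concentration tested. Otherwise, values were interpolated linearly from a five-concentration, 48-hour dose response in 96-well plates. Abbreviation: GI50, concentration required for 50% inhibition of growth.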 Activity calls are given as the source filed them. Cut-off read from the data, not from the text of the source: active = GI50 up to about 1.1 µM and inactive = higher.

Assays:
Experiment in all cases: NCI tumour cell line growth inhibition, 48 h
LOX IMVI = system: LOX IMVI
SF-268 = system: SF-268
NCI/ADR-RES = system: NCI/ADR-RES
MDA-MB-231 = system: MDA-MB-231
HCC 2998 = system: HCC 2998
K562 = system: K562
786-0 = system: 786-0
SN12C = system: SN12C
UACC-62 = system: UACC-62
SF-295 = system: SF-295
RPMI-8226 = system: RPMI-8226
HCT-116 = system: HCT-116
ACHN = system: ACHN
OVCAR-8 = system: OVCAR-8
SK-MEL-28 = system: SK-MEL-28
HOP-92 = system: HOP-92
MOLT-4 = system: MOLT-4
SNB-75 = system: SNB-75
MCF7 = system: MCF7
OVCAR-4 = system: OVCAR-4
SF-539 = system: SF-539
OVCAR-5 = system: OVCAR-5
HCT-15 = system: HCT-15
T47D = system: T47D
DU-145 = system: DU-145
SNB-19 = system: SNB-19
OVCAR-3 = system: OVCAR-3
A498 = system: A498
HOP-62 = system: HOP-62
CAKI-1 = system: CAKI-1
EKVX = system: EKVX
SK-OV-3 = system: SK-OV-3
IGROV-1 = system: IGROV-1
U-251 = system: U-251
UACC-257 = system: UACC-257
SW-620 = system: SW-620
TK-10 = system: TK-10
KM12 = system: KM12
NCI-H460 = system: NCI-H460
NCI-H226 = system: NCI-H226
A549 = system: A549
SK-MEL-2 = system: SK-MEL-2
COLO 205 = system: COLO 205
Malme-3M = system: Malme-3M
M14 = system: M14
NCI-H23 = system: NCI-H23
UO-31 = system: UO-31
SR = system: SR
CCRF-CEM = system: CCRF-CEM
HT-29 = system: HT-29
HL-60 = system: HL-60
MDA-MB-435 = system: MDA-MB-435
RXF 393 = system: RXF 393
Hs-578T = system: Hs-578T
PC-3 = system: PC-3
MDA-N = system: MDA-N
NCI-H522 = system: NCI-H522
SK-MEL-5 = system: SK-MEL-5

For O=C1NC2c3c(I)sc(I)c3C(O)C2O1 (stereo unspecified), the GI50 (LOX IMVI) was > 100 µM (inactive), the GI50 (SF-268) was > 100 µM (inactive) and the GI50 (NCI/ADR-RES) was > 100 µM (inactive). For the same molecule, the GI50 (MDA-MB-231) was > 100 µM (inactive), the GI50 (HCC 2998) was > 100 µM (inactive) and the GI50 (K562) was > 100 µM (inactive). The GI50 (786-0) was > 100 µM (inactive), the GI50 (SN12C) was > 100 µM (inactive) and the GI50 (UACC-62) was > 100 µM (inactive). For the same molecule, the GI50 (SF-295) was > 100 µM (inactive), the GI50 (RPMI-8226) was > 100 µM (inactive) and the GI50 (HCT-116) was > 100 µM (inactive). The GI50 (ACHN) was > 100 µM (inactive), the GI50 (OVCAR-8) was > 100 µM (inactive) and the GI50 (SK-MEL-28) was > 100 µM (inactive). For the same molecule, the GI50 (HOP-92) was > 100 µM (inactive), the GI50 (MOLT-4) was > 100 µM (inactive) and the GI50 (SNB-75) was > 100 µM (inactive). For the same molecule, the GI50 (MCF7) was > 100 µM (inactive), the GI50 (OVCAR-4) was > 100 µM (inactive) and the GI50 (SF-539) was > 100 µM (inactive). For the same molecule, the GI50 (OVCAR-5) was > 100 µM (inactive), the GI50 (HCT-15) was > 100 µM and the GI50 (T47D) was > 100 µM (inactive). The GI50 (DU-145) was > 100 µM (inactive), the GI50 (SNB-19) was > 100 µM (inactive) and the GI50 (OVCAR-3) was > 100 µM (inactive). The GI50 (A498) was > 100 µM (inactive), the GI50 (HOP-62) was > 100 µM (inactive) and the GI50 (CAKI-1) was > 100 µM (inactive). For the same molecule, the GI50 (EKVX) was > 100 µM (inactive), the GI50 (SK-OV-3) was > 100 µM (inactive) and the GI50 (IGROV-1) was > 100 µM (inactive). For the same molecule, the GI50 (U-251) was > 100 µM (inactive), the GI50 (UACC-257) was > 100 µM (inactive) and the GI50 (SW-620) was > 100 µM (inactive). For the same molecule, the GI50 (TK-10) was > 100 µM (inactive), the GI50 (KM12) was > 100 µM (inactive) and the GI50 (NCI-H460) was > 100 µM (inactive). The GI50 (NCI-H226) was > 100 µM (inactive), the GI50 (A549) was > 100 µM (inactive) and the GI50 (SK-MEL-2) was > 100 µM (inactive). For the same molecule, the GI50 (COLO 205) was > 100 µM (inactive), the GI50 (Malme-3M) was > 100 µM (inactive) and the GI50 (M14) was > 100 µM (inactive). The GI50 (NCI-H23) was > 100 µM (inactive), the GI50 (UO-31) was > 100 µM (inactive) and the GI50 (SR) was > 100 µM (inactive). The GI50 (CCRF-CEM) was 52.8 µM (inactive), the GI50 (HT-29) was > 100 µM (inactive) and the GI50 (HL-60) was > 100 µM (inactive). For the same molecule, the GI50 (MDA-MB-435) was > 100 µM (inactive), the GI50 (RXF 393) was > 100 µM (inactive) and the GI50 (Hs-578T) was > 100 µM (inactive). For the same molecule, the GI50 (PC-3) was > 100 µM (inactive) and the GI50 (MDA-N) was > 100 µM (inactive).

In the case of C/C(C=O)=C/[C@@]1(C)O[C@@H](C)[C@@](C)(O)[C@@H]1O, the GI50 (LOX IMVI) is reported as 95.5 µM (inactive), the GI50 (SF-268) is reported as 25.2 µM (inactive) and the GI50 (NCI/ADR-RES) is reported as 21.9 µM (inactive). For the same molecule, the GI50 (MDA-MB-231) was > 100 µM (inactive), the GI50 (HCC 2998) was 17.4 µM (inactive) and the GI50 (K562) was 7.94 µM (inactive). The GI50 (786-0) was 17 µM (inactive), the GI50 (SN12C) was 32.5 µM (inactive) and the GI50 (UACC-62) was 43.7 µM (inactive). For the same molecule, the GI50 (SF-295) was 41.1 µM (inactive), the GI50 (RPMI-8226) was 30.9 µM (inactive) and the GI50 (HCT-116) was 93.1 µM (inactive). The GI50 (ACHN) was 24.5 µM (inactive), the GI50 (OVCAR-8) was 18.8 µM (inactive) and the GI50 (SK-MEL-28) was > 100 µM (inactive). For the same molecule, the GI50 (HOP-92) was 37.2 µM (inactive), the GI50 (MOLT-4) was 5.62 µM (inactive) and the GI50 (MCF7) was 25.6 µM (inactive). The GI50 (OVCAR-4) was > 100 µM (inactive), the GI50 (SF-539) was 40.2 µM (inactive) and the GI50 (OVCAR-5) was > 100 µM (inactive). For the same molecule, the GI50 (HCT-15) was 22.2 µM, the GI50 (T47D) was > 100 µM (inactive) and the GI50 (DU-145) was 78.9 µM (inactive). The GI50 (NCI-H522) was 19 µM (inactive), the GI50 (SNB-19) was 61.1 µM (inactive) and the GI50 (OVCAR-3) was 49.1 µM (inactive). For the same molecule, the GI50 (A498) was 83.6 µM (inactive), the GI50 (HOP-62) was 63.1 µM (inactive) and the GI50 (CAKI-1) was 19.9 µM (inactive). For the same molecule, the GI50 (EKVX) was > 100 µM (inactive), the GI50 (SK-OV-3) was > 100 µM (inactive) and the GI50 (IGROV-1) was > 100 µM (inactive). The GI50 (U-251) was > 100 µM (inactive), the GI50 (UACC-257) was 22.1 µM (inactive) and the GI50 (SW-620) was 87.3 µM (inactive). For the same molecule, the GI50 (TK-10) was 77.6 µM (inactive), the GI50 (KM12) was 35.4 µM (inactive) and the GI50 (NCI-H460) was 22.2 µM (inactive). The GI50 (NCI-H226) was > 100 µM (inactive), the GI50 (A549) was > 100 µM (inactive) and the GI50 (SK-MEL-2) was 80.5 µM (inactive). For the same molecule, the GI50 (COLO 205) was 40.7 µM (inactive), the GI50 (Malme-3M) was 52 µM (inactive) and the GI50 (M14) was 32.5 µM (inactive). For the same molecule, the GI50 (SK-MEL-5) was 64.6 µM (inactive), the GI50 (NCI-H23) was 33.3 µM (inactive) and the GI50 (UO-31) was 1.3 µM (inactive). The GI50 (SR) was 2.58 µM (inactive), the GI50 (CCRF-CEM) was 36.9 µM (inactive) and the GI50 (HT-29) was > 100 µM (inactive). The GI50 (HL-60) was > 100 µM (inactive), the GI50 (MDA-MB-435) was 31 µM (inactive) and the GI50 (RXF 393) was > 100 µM (inactive). The GI50 (Hs-578T) was 49.5 µM (inactive), the GI50 (PC-3) was 47.5 µM (inactive) and the GI50 (MDA-N) was 44.3 µM (inactive).

In the case of O=C(/C=C/c1ccc(O)c(O)c1)OCCCc1ccccc1, the GI50 (LOX IMVI) is reported as 12.3 µM (inactive), the GI50 (SF-268) is reported as 10.2 µM (inactive) and the GI50 (NCI/ADR-RES) is reported as 8.39 µM (inactive). For the same molecule, the GI50 (MDA-MB-231) was 11.8 µM (inactive), the GI50 (HCC 2998) was 20.4 µM (inactive) and the GI50 (K562) was 21.3 µM (inactive). For the same molecule, the GI50 (786-0) was 4.39 µM (inactive), the GI50 (SN12C) was 11.9 µM (inactive) and the GI50 (UACC-62) was 9.84 µM (inactive). The GI50 (SF-295) was 16 µM (inactive), the GI50 (RPMI-8226) was 13.1 µM (inactive) and the GI50 (HCT-116) was 10.6 µM (inactive). The GI50 (ACHN) was 5.32 µM (inactive), the GI50 (SK-MEL-28) was 15.3 µM (inactive) and the GI50 (HOP-92) was 12.9 µM (inactive). For the same molecule, the GI50 (MOLT-4) was 0.946 µM (active), the GI50 (MCF7) was 12 µM (inactive) and the GI50 (OVCAR-4) was 6.67 µM (inactive). For the same molecule, the GI50 (SF-539) was 2.45 µM (inactive), the GI50 (OVCAR-5) was 18.4 µM (inactive) and the GI50 (HCT-15) was 3.9 µM. The GI50 (T47D) was 16.4 µM (inactive), the GI50 (DU-145) was 14.1 µM (inactive) and the GI50 (NCI-H522) was 0.851 µM (active). For the same molecule, the GI50 (SNB-19) was 15 µM (inactive), the GI50 (OVCAR-3) was 1.71 µM (inactive) and the GI50 (A498) was 16.4 µM (inactive). For the same molecule, the GI50 (HOP-62) was 13.7 µM (inactive), the GI50 (CAKI-1) was 20.6 µM (inactive) and the GI50 (EKVX) was 25.8 µM (inactive). The GI50 (SK-OV-3) was 23.6 µM (inactive), the GI50 (IGROV-1) was 3.34 µM (inactive) and the GI50 (U-251) was 11 µM (inactive). The GI50 (UACC-257) was 34.1 µM (inactive), the GI50 (SW-620) was 12.6 µM (inactive) and the GI50 (NCI-H460) was 20.2 µM (inactive). The GI50 (NCI-H226) was 16 µM (inactive), the GI50 (A549) was 14.3 µM (inactive) and the GI50 (SK-MEL-2) was 17.5 µM (inactive). The GI50 (COLO 205) was 12.4 µM (inactive), the GI50 (Malme-3M) was 12.1 µM (inactive) and the GI50 (M14) was 7.78 µM (inactive). For the same molecule, the GI50 (SK-MEL-5) was 13.2 µM (inactive), the GI50 (NCI-H23) was 13.2 µM (inactive) and the GI50 (UO-31) was 4.95 µM (inactive). For the same molecule, the GI50 (SR) was 5.69 µM (inactive), the GI50 (HT-29) was 21.9 µM (inactive) and the GI50 (HL-60) was 1.07 µM (active). For the same molecule, the GI50 (MDA-MB-435) was 9.44 µM (inactive), the GI50 (RXF 393) was 11.2 µM (inactive) and the GI50 (Hs-578T) was 28.4 µM (inactive). For the same molecule, the GI50 (PC-3) was 8.85 µM (inactive) and the GI50 (MDA-N) was 11.8 µM (inactive).
